# Tests used:
# Assay type in all cases: cell-based, human
# [1] = tested on: patient-derived organoids (lung cancer); experiment: Patient tumor tissue-derived organoid assay (area, caspase activity)
# Experimental: Next, drug efficacy in patient tumor tissue-derived organoids was determined. Approximately 5000 cells/sample from 2 surgical samples were seeded in an ultra-low attachment plate and incubated at 37° C. […] In one of the patient-derived organoids, cisplatin treatment alone decreased spheroid area and increased apoptosis as measured by green intensity (FIG. 11D). […] Indeed, by 72 hours carfilzomib at a concentration of 2.5 μM induced 5-fold increase in caspase activity compared to cisplatin alone but there was not much change in the spheroid area (FIGS. 11E-11F). Thus, no additive effect was apparent in this patient sample. […] The efficacy of ITGB4 antibody in disrupting organoid growth and inducing apoptosis was also tested.
# H1993 cells = experiment: IncuCyte cell proliferation and caspase-3/7 apoptosis assay
# Experimental: (§1) Cell proliferation and apoptosis assay. Cell proliferation assays were performed using cell lines stably transfected with NucLight Red Lentivirus (Essen Bioscience) to accurately visualize and count the nucleus of a single cell. Cells were seeded on a 96-well plate and allowed to adhere for 24 hours. Test compounds were added at indicated concentrations. Caspase-3/7 Green Apoptosis Reagent (Essen Bioscience) was also added as a green fluorescent indicator of caspase-3/7-mediated apoptotic activity. To monitor cell proliferation and apoptosis over time, the plate was placed in the IncuCyte S3 Live-Cell Analysis System (Essen BioScience) and images were acquired every 2 hours. Data analysis was generated by the IncuCyte software using a red fluorescence mask to accurately count each cell nucleus and a green fluorescence mask to measure apoptosis over time.
# (§2) To determine whether the inhibition in cell proliferation associated with ITGB4 knockdown was due to enhanced apoptosis or reduced cell division (cytostatic), the Essen Bioscience Caspase-3/7 Green apoptosis assay in live cells was conducted. The NucView™[…], a DNA intercalating dye was used to enable quantification of apoptosis over time. The dye is impermeable and non-toxic to cells but once the cell membrane is permeabilized by caspase-3/7, the dye enters the cell and gets activated due to change in pH leading to the generation of green fluorescence that is then detected in real time and quantified using the IncuCyte System (FIG. 4B).
# To address this, H1993 and H2009 cells were treated with cisplatin for 3 days and the changes were analyzed by immunoblotting. […] Next, H1993 and H2009 cells were transiently transfected with ITGB4 siRNA and 24 hours post-transfection they were treated with 10 μM cisplatin and cell proliferation and caspase activity were determined. […] However, in response to cisplatin in ITGB4 knockdown cells, the fold change dipped to <1, alluding to a cytotoxic effect (FIG. 4C). […] However, cell death was not due to caspase activation but appeared to be due to cell bursting which is seen in anoikis (FIGS. 3K and 3L). […]
# [2] = tested on: ITGB4, PXN, USP1, VDAC1, CD133 in patient-derived organoids; experiment: Immunoblot of treated patient-derived organoids; settings: 48 hours, printed 2.5 mM and 5 mM
# [3] = tested on: ITGB4, PXN, FAK, p27, phospho-Rb, γH2AX, cleaved PARP in H2009 cells; experiment: Immunoblot; settings: cisplatin 10 μM, 3 days
# Experimental: (§3) West blotting: Cell lysates were prepared with 1×RIPA buffer (MilliporeSigma) and denatured in 1× reducing sample buffer at 95° C. for 5 minutes. Protein samples (15 μg) were run on 4-15% TGX gels (Bio-Rad, Hercules, Calif., USA) and transferred onto nitrocellulose membranes (Bio-Rad). Blots were blocked with 5% non-fat milk in TBS-T for 1 hour at room temperature and probed with primary antibody diluted in 2.5% BSA in TBS-T overnight at 4° C. After three washes with TBS-T, blots were incubated with HRP-conjugated secondary antibodies for 2 hours at room temperature. After three more washes, bands of interest were visualized via chemiluminescence using Western Bright ECL HRP substrate (Advansta, Menlo Park, Calif., USA) and imaged with the ChemiDoc MP imager (Bio-Rad).
# (§4) Then a sublethal dose was used to determine the effect of these compounds on ITGB4 and PXN expression and caspase activity (FIG. 9I). […] These eleven compounds were further screened in the cisplatin-resistant cell line H2009. […] Further, carfilzomib was tested in another cisplatin-resistant cell line H1993.
# [4] = tested on: ITGB4, PXN, FAK, MET, γH2AX, cleaved PARP in H1993 cells; experiment: Immunoblot; settings: cisplatin 10 μM, 3 days
# Experimental: as §3, §4
# [5] = tested on: ITGB4 expression in H2009 cells; experiment: FACS analysis with ITGB4 antibody after cisplatin; settings: cisplatin for 4 days, FACS on day 5
# Experimental: Fluorescence-activated cell sorting (FACS) and analysis: Cells were trypsinized and resuspended (5 million) in PBS with 2% FBS. Cells were stained with ITGB4 antibody conjugated to Alexa Fluor® 488 (5 μl/1 million cells) (R&D Systems, Minneapolis, Minn., USA) and Propidium Iodide Ready Flow™ Reagent (1 drop/1 million cells) (Invitrogen) for 30 minutes at 4° C. The Analytical Cytometry Core Facility at City of Hope carried out and assisted all FACS sorting and analysis experiments. Gates were set to sort cell populations having low 10% and high 10% expression of ITGB4 using the FACSAria™ Fusion (BD Biosciences, San Jose, Calif., USA). Sorted cells were immediately cultured in 12-well plates and treated with cisplatin (1 μM) for 48 hours. Then, equal number of untreated and treated cells were collected and stained with same reagents as above. FACS analysis was performed to determine shifts in cell population using the Attune NxT Flow Cytometer (Invitrogen).
# To test the predictions made by the model, H2009 cells were treated with cisplatin for 4 days. On day 5, they were subjected to FACS analysis using an ITGB4 antibody. […] In presence of stress, the cells either increased the expression of ITGB4 or the cells having high ITGB4 get selected (FIG. 13B). […] The cells were then counted, and an equal number of cells were stained with ITGB4 antibody and PI and analyzed by FACS sorting.
# H2009 cells = experiment: IncuCyte cell proliferation and caspase-3/7 apoptosis assay; settings: 10 μM cisplatin alone
# Experimental: as §1, §2
# To address this, H1993 and H2009 cells were treated with cisplatin for 3 days and the changes were analyzed by immunoblotting. […] Next, H1993 and H2009 cells were transiently transfected with ITGB4 siRNA and 24 hours post-transfection they were treated with 10 μM cisplatin and cell proliferation and caspase activity were determined. […] However, in response to cisplatin in ITGB4 knockdown cells, the fold change dipped to <1, alluding to a cytotoxic effect (FIG. 4C). […] However, cell death was not due to caspase activation but appeared to be due to cell bursting which is seen in anoikis (FIGS. 3K and 3L).
smiles,measurement,setting,value
"N.N.[Cl][Pt][Cl] [Cisplatin, Cis-diamminedichloroplatinum(II)]",spheroid area,[1]; patient LCSC2,decreased the spheroid area
same,organoid size,"[1]; patient LCSC4, cisplatin 5 μM alone, carfilzomib 2.5 μM alone",decreased the size of the organoid
same,caspase activity,"[1]; second patient (LCSC2) organoids, drug alone",did not induce any caspase activity
same,caspase activity,H1993 cells; 10 μM cisplatin alone,did not induce caspase activity
same,fold change in cell count,"H1993 cells; ITGB4 knockdown or 10 μM cisplatin alone, cytostatic",~1 fold
same,protein expression by immunoblot,[2],minimal effect
same,protein expression by immunoblot,[3],reduction in the expression of phosphorylated as well as total FAK and PXN
same,protein expression by immunoblot,[4],reduction in the expression of phosphorylated as well as total FAK and PXN
same,decrease in ITGB4 low-expressing cells compared to untreated,[5],15%
same,apoptosis,H2009 cells,induced apoptosis in H2009 cell by 72 hours
